Measurements: patent US7300941B2, “Non-imidazole compounds” (Schering Corporation, priority 2000, dated 2007)
“And” between values parts separate entries of the source, which are not always exact repeats. Equal entries are not always repeated.

Biological target: T1, H3 receptors (Cavia porcellus, UniProt Q9JI35)
T1 construct: The brain tissue was homogenized with a solution of 50 mM Tris, pH 7.5; from tissue; host or cells: guinea pig brain membranes
Assay: H3-Receptor Binding Assay
Conditions: guinea pig brain membranes; 3 nM [3H]R-α-methyl histamine or 3 nM [3H]Nα-methyl histamine; 30° C., 30 min
Description: H3-Receptor Binding Assay
The source of the H3 receptors in this experiment was guinea pig brain. The animals weighed 400-600 g. The brain tissue was homogenized with a solution of 50 mM Tris, pH 7.5. The final concentration of tissue in the homogenization buffer was 10% w/v. The homogenates were centrifuged at 1,000×g for 10 min. in order to remove clumps of tissue and debris. The resulting supernatants were then centrifuged at 50,000×g for 20 min. in order to sediment the membranes, which were next washed three times in homogenization buffer (50,000×g for 20 min. each). The membranes were frozen and stored at −70° C. until needed.
All compounds to be tested were dissolved in DMSO and then diluted into the binding buffer (50 mM Tris, pH 7.5) such that the final concentration was 2 μg/ml with 0.1% DMSO. Membranes were then added (400 μg of protein) to the reaction tubes. The reaction was started by the addition of 3 nM [^3H]R-α-methyl histamine (8.8 Ci/mmol) or 3 nM [^3H]N^α-methyl histamine (80 Ci/mmol) and continued under incubation at 30° C. for 30 min. Bound ligand was separated from unbound ligand by filtration, and the amount of radioactive ligand bound to the membranes was quantitated by liquid scintillation spectrometry. All incubations were performed in duplicate and the standard error was always less than 10%. Compounds that inhibited more than 70% of the specific binding of radioactive ligand to the receptor were serially diluted to determine a Ki (nM).

T1 sequence (Q9JI35 whole entry): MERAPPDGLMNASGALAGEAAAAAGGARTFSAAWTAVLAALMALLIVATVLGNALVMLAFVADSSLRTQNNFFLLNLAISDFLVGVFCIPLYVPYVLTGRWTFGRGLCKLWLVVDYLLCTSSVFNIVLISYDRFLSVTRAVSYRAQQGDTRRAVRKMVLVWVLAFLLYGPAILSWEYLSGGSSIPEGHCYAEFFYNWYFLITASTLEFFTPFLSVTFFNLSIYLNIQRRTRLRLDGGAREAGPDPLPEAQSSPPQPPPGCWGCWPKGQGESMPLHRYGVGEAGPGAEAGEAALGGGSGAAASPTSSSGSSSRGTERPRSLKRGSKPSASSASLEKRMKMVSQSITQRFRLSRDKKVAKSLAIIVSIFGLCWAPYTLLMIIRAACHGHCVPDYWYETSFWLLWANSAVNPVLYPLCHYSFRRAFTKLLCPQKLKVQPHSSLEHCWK

SMILES | Ki
CO/N=C(/c1ccc(C(F)(F)F)cc1)C1CCN(C(=O)C2CCN(Cc3ccnc(N)c3)CC2)CC1 [Compound 226] | 0.25 to 33 nM
Nc1cc(CN2CCC(C(=O)N3CCC(/C(=N\OCC(F)(F)F)c4ncccc4F)CC3)CC2)ccn1 [Compound 320] | 1.05 to 9.75 nM
CON=C(c1ccccc1Cl)C1CCN(C(=O)C2CCN(Cc3ccnc(N)c3)CC2)CC1 [Compound 220] | 0.25 to 33 nM
CO/N=C(/c1ccccn1)C1CCN(C(=O)C2CCN(Cc3cnc(N)nc3)CC2)CC1 [Compound 287] | 0.25 to 33 nM and 0.25 to 16 nM and 1.05 to 9.75 nM
CON=C(c1ccc(Cl)cc1)C1CCN(C(=O)N2CCN(Cc3ccnc(N)c3)CC2)CC1 [Compound 215] | 0.25 to 33 nM
Nc1cc(CN2CCC(C(=O)N3CCC(C(=NO)c4ccccn4)CC3)CC2)ccn1 [Compound 237] | 0.25 to 33 nM and 0.25 to 16 nM
Nc1cc(CN2CCC(C(=O)N3CCC(c4noc5ncccc45)CC3)CC2)ccn1 [Compound 247] | 0.25 to 33 nM
CO/N=C(/c1ccccn1)C1CCN(C(=O)C2CCN([C@H](C)c3ccnc(N)c3)CC2)CC1 [Compound 55] | 0.25 to 33 nM and 0.25 to 16 nM and 1.05 to 9.75 nM
CCO/N=C(/c1ccccn1)C1CCN(C(=O)C2CCN(Cc3ccnc(N)c3)CC2)CC1 [Compound 246A] | 0.25 to 33 nM and 0.25 to 16 nM
CON=C(c1ccccn1)C1CCN(C(=O)C2CCN(C(C)c3ccnc(N)c3)CC2)CC1 (stereo not drawn) [Compound 53] | 0.25 to 33 nM
Nc1cc(CN2CCC(C(=O)N3CCC(c4noc5cc(F)ccc45)CC3)CC2)ccn1 [Compound 23] | 0.25 to 33 nM
CON=C(c1ccsc1)C1CCN(C(=O)C2CCN(Cc3ccnc(N)c3)CC2)CC1 [Compound 235] | 0.25 to 33 nM
CON=C(c1ccccc1)C1CCN(C(=O)C2CCN(Cc3ccnc(N)c3)CC2)CC1 [Compound 238] | 0.25 to 33 nM
CO/N=C(\c1ccccn1)C1CCN(C(=O)C2CCN([C@H](C)c3ccnc(N)c3)CC2)CC1 [Compound 57A] | 0.25 to 33 nM
CO/N=C(/c1ccccn1)C1CCN(C(=O)C2CCN([C@@H](C)c3ccnc(N)c3)CC2)CC1 [Compound 54] | 0.25 to 33 nM and 0.25 to 16 nM and 1.05 to 9.75 nM
CON=C(c1ccc(Cl)cc1)C1CCN(C(=O)C2(O)CCN(Cc3ccnc(N)c3)CC2)CC1 [Compound 59] | 0.25 to 33 nM
CCON=C(c1ccc(F)cc1F)C1CCN(C(=O)C2CCN(Cc3ccnc(N)c3)CC2)CC1 [Compound 229] | 0.25 to 33 nM
CO/N=C(/c1ccc(Cl)cc1)C1CCN(C(=O)C2CCN(Cc3ccncc3)CC2)CC1 [Compound 273] | 0.25 to 16 nM
CON=C(C1CCCCC1)C1CCN(C(=O)C2CCN(Cc3ccnc(N)c3)CC2)CC1 [Compound 309] | 0.25 to 33 nM and 0.25 to 16 nM
CO/N=C(/c1csc(C)n1)C1CCN(C(=O)C2CCN(Cc3ccnc(N)c3)CC2)CC1 [Compound 253A] | 0.25 to 33 nM and 0.25 to 16 nM and 1.05 to 9.75 nM
Nc1cc(CN2CCC(C(=O)N3CCC(C(=O)c4ccccn4)CC3)CC2)ccn1 [Compound 30] | 0.25 to 33 nM and 0.25 to 16 nM

SMILES | Ki
CON=C(c1cc(Cl)cc(Cl)c1)C1CCN(C(=O)C2CCN(Cc3ccnc(N)c3)CC2)CC1 [Compound 218] | 0.25 to 33 nM
Nc1cc(CN2CCC(C(=O)N3CCC(C(=O)c4ccc5ccccc5n4)CC3)CC2)ccn1 [Compound 312] | 0.25 to 33 nM and 0.25 to 16 nM
CON=C(c1ccc(Cl)cc1)C1CCN(C(=O)C2CCN(C(C)c3ccnc(N)c3)CC2)CC1 (stereo not drawn) [Compound 227] | 0.25 to 33 nM
CCON=C(c1ccc(Cl)cc1)C1CCN(C(=O)C2CCN(Cc3ccnc(N)c3)CC2)CC1 [Compound 212] | 0.25 to 33 nM
CO/N=C(/c1ccc(Cl)cc1)C1CCN(C(=O)C2CCN(Cc3ccnc(N)c3)CC2)CC1 [Compound 225] | 0.25 to 33 nM and 0.25 to 16 nM
CON=C(c1csc(C)n1)C1CCN(C(=O)C2CCN(Cc3ccnc(N)c3)CC2)CC1 [Compound 253] | 0.25 to 33 nM
CO/N=C(\c1ccc(Cl)cc1)C1CCN(C(=O)C2CCN(Cc3ccnc(N)c3)CC2)CC1 [Compound 224] | 0.25 to 33 nM
O=C(C1CCN(Cc2ccncc2)CC1)N1CCC(/C(=N\O)c2ccc(F)cc2)CC1 [Compound 275] | 0.25 to 33 nM
CON=C(c1ccc[n+]([O-])c1)C1CCN(C(=O)C2CCN(Cc3ccnc(N)c3)CC2)CC1 [Compound 92] | 0.25 to 33 nM
CON=C(c1ccccc1F)C1CCN(C(=O)C2CCN(Cc3ccnc(N)c3)CC2)CC1 [Compound 219] | 0.25 to 33 nM
CON=C(c1ccccn1)C1CCN(C(=O)C2CCN(Cc3ccnc(N)c3)CC2)CC1 [Compound 31] | 0.25 to 33 nM and 0.25 to 16 nM
CON=C(c1ccc(Cl)cc1)C1CCN(C(=O)C2CCN(Cc3ccnc(N)c3)CC2)CC1 [Compound 280] | 0.25 to 16 nM
CO/N=C(\c1ccccn1)C1CCN(C(=O)C2CCN([C@@H](C)c3ccnc(N)c3)CC2)CC1 [Compound 56] | 0.25 to 33 nM and 0.25 to 16 nM
CON=C(c1ncccn1)C1CCN(C(=O)C2CCN(Cc3ccnc(N)c3)CC2)CC1 [Compound 248] | 0.25 to 33 nM
CO/N=C(\c1ccccn1)C1CCN(C(=O)C2CCN(Cc3ccnc(N)c3)CC2)CC1 [Compound 33] | 0.25 to 33 nM and 0.25 to 16 nM
CON=C(c1ccccn1)C1CCN(C(=O)C2CCN(Cc3ccncc3N)CC2)CC1 [Compound 296] | 0.25 to 33 nM and 0.25 to 16 nM
CO/N=C(/c1ccccn1)C1CCN(C(=O)C2CCN(Cc3ccnc(N)c3)CC2)CC1 [Compound 32] | 0.25 to 33 nM and 0.25 to 16 nM and 0.83 nM
CCON=C(c1ccccn1)C1CCN(C(=O)C2CCN(Cc3ccnc(N)c3)CC2)CC1 [Compound 246] | 0.25 to 33 nM
CON=C(c1cccc(S(=O)(=O)N(C)C)c1)C1CCN(C(=O)C2CCN(Cc3ccnc(N)c3)CC2)CC1 [Compound 251] | 0.25 to 33 nM
CON=C(c1ccc(Cl)cc1Cl)C1CCN(C(=O)C2CCN(C(C)c3ccnc(N)c3)CC2)CC1 (stereo not drawn) [Compound 233] | 0.25 to 33 nM
CO/N=C(/c1ccccn1)C1CN(C(=O)C2CCN(Cc3ccnc(N)c3)CC2)C1 [Compound 301] | 0.25 to 33 nM and 0.25 to 16 nM
